Source: patent publication US9555039B2, “Piperidine derivatives and compositions for the inhibition of nicotinamide phosphoribosyltransferase (NAMPT)” (Forma TM, LLC., priority 2011, dated 2017)

How the values were obtained:
[1] = target: T1, Recombinant His-tagged NAMPT (Homo sapiens, UniProt P43490); test: Biochemical inhibition assay: NAMPT enzymatic reaction, NMN quantified by mass spectrometry; conditions: 33 nM NAMPT, 1 μM NAM, 100 μM PRPP, 2.5 mM ATP, 30 minutes at room temperature; read-out: Biochem IC50
T1 construct: His; host or cells: E. coli
T1 sequence (P43490 whole entry): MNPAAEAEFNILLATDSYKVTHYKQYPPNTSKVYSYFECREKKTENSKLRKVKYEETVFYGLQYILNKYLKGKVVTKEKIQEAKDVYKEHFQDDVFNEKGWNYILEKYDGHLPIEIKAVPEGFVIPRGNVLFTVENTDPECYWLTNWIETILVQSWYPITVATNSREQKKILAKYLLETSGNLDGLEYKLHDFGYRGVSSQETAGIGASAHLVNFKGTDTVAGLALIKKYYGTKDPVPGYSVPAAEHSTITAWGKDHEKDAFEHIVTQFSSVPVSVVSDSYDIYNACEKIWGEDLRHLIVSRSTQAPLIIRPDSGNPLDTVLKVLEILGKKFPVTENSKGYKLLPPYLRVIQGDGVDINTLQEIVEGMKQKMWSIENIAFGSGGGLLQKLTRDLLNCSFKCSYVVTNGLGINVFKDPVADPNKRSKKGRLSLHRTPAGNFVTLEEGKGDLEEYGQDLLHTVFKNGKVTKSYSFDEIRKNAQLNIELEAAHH
Summary of the method: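 Reaction 30 min at room temperature with 1 μM NAM, 100 μM PRPP, 2.5 mM ATP (final), quenched with formic acid. NMN quantified by RapidFire electrospray MS, normalized to L-cystathionine; IC50 from percent inhibition versus DMSO.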

A2780 cells = test: In-vitro cell proliferation assay (SRB, 72 hours); format: cell-based; conditions: Homo sapiens, sulforhodamine B (SRB) assay
Summary of the method: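 Viable cells measured by TCA fixation and SRB staining, absorbance 570 nm; % inhibition vs DMSO control after media-only background subtraction, interpolated between two bracketing concentrations.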

COc1ccc(C(=O)N2CCC(CCCCNC(=O)c3ccc4nccn4c3)CC2)cc1F [N-(4-{1-[(3-fluoro-4-methoxyphenyl)carbonyl]piperidin-4-yl}butyl)imidazo[1,2-a]pyridine-6-carboxamide]
IC50 [1]: 20.2 nM
IC50 (A2780 cells): 65.2 nM

O=C(NCCCCC1CCN(C(=O)c2cccc(F)c2)CC1)c1ccc2nccn2c1 [N-(4-{1-[(3-fluorophenyl)carbonyl]piperidin-4-yl}butyl)imidazo[1,2-a]pyridine-6-carboxamide]
IC50 [1]: 9.2 nM
IC50 (A2780 cells): 10.3 nM

Cc1c(F)cccc1C(=O)N1CCC(CCCCNC(=O)c2cc3cnccc3[nH]2)CC1 [N-(4-{1-[(3-fluoro-2-methylphenyl)carbonyl]piperidin-4-yl}butyl)-1H-pyrrolo[3,2-c]pyridine-2-carboxamide]
IC50 [1]: 20.5 nM
IC50 (A2780 cells): 3.1 nM

O=C(NCCCCC1CCN(C(=O)c2ccc(OC(F)(F)F)cc2)CC1)c1cc2ccncc2s1 [N-[4-(1-{[4-(trifluoromethoxy)phenyl]carbonyl}piperidin-4-yl)butyl]thieno[2,3-c]pyridine-2-carboxamide]
IC50 [1]: 166 nM
IC50 (A2780 cells): 100 to 1000 nM

O=C(NCCCCC1CCN(C(=O)c2csc(-c3cccnc3)n2)CC1)c1cc2ccncc2s1 [N-[4-(1-{[2-(pyridin-3-yl)-1,3-thiazol-4-yl]carbonyl}piperidin-4-yl)butyl]thieno[2,3-c]pyridine-2-carboxamide]
IC50 [1]: 70.6 nM
IC50 (A2780 cells): 85.3 nM

O=C(NCCCCN1CCN(C(=O)c2ccccc2)CC1)c1cc2cnccc2[nH]1 [N-[4-(4-benzoylpiperazin-1-yl)butyl]-1H-pyrrolo[3,2-c]pyridine-2-carboxamide]
IC50 [1]: 16 nM
IC50 (A2780 cells): 94.7 nM

O=C(NCCCCC1CCN(C(=O)c2ccc3cc[nH]c3c2)CC1)c1cc2ccncc2s1 [N-(4-{1-[(1H-indol-6-yl)carbonyl]piperidin-4-yl}butyl)thieno[2,3-c]pyridine-2-carboxamide]
IC50 [1]: 36.1 nM
IC50 (A2780 cells): 70.3 nM

Cc1ccc(F)cc1C(=O)N1CCC(CCCCNC(=O)c2ccc3nccn3c2)CC1 [N-(4-{1-[(5-fluoro-2-methylphenyl)carbonyl]piperidin-4-yl}butyl)imidazo[1,2-a]pyridine-6-carboxamide]
IC50 [1]: 10.9 nM
IC50 (A2780 cells): 3.9 nM

Cn1c(C(=O)N2CCC(CCCCNC(=O)c3ccc4nccn4c3)CC2)cc2ccccc21 [N-(4-{1-[(1-methyl-1H-indol-2-yl)carbonyl]piperidin-4-yl}butyl)imidazo[1,2-a]pyridine-6-carboxamide]
IC50 [1]: 124 nM
IC50 (A2780 cells): 55.1 nM

O=C(NCCCCC1CCN(C(=O)c2cc3ccccc3[nH]2)CC1)c1cc2cnccc2[nH]1 [N-(4-{1-[(1H-indol-2-yl)carbonyl]piperidin-4-yl}butyl)-1H-pyrrolo[3,2-c]pyridine-2-carboxamide]
IC50 [1]: 125 nM
IC50 (A2780 cells): 60.3 nM

O=C(NCCCCC1CCN(S(=O)(=O)c2ccc(C(F)(F)F)cc2)CC1)c1cc2cnccc2[nH]1 [N-[4-(1-{[4-(trifluoromethyl)benzene]sulfonyl}piperidin-4-yl)butyl]-1H-pyrrolo[3,2-c]pyridine-2-carboxamide]
IC50 [1]: 74.8 nM
IC50 (A2780 cells): 23.3 nM
